Two molecules from patent US6841682B2, “Heterocycles useful in the treatment of benign prostatic hyperplasia” (Janseen Pharmaceutica N.V., priority 1997, dated 2005) can be followed below.

SMILES strings stand for the structures.

One experiment addresses T1, α1b-AR (Homo sapiens, UniProt P35368).
T1 construct: expressed in transfected cells; host or cells: COS cells (pcDNA3 vector, DEAE-dextran transient transfection); membrane preparation
T1 sequence (P35368 1-520): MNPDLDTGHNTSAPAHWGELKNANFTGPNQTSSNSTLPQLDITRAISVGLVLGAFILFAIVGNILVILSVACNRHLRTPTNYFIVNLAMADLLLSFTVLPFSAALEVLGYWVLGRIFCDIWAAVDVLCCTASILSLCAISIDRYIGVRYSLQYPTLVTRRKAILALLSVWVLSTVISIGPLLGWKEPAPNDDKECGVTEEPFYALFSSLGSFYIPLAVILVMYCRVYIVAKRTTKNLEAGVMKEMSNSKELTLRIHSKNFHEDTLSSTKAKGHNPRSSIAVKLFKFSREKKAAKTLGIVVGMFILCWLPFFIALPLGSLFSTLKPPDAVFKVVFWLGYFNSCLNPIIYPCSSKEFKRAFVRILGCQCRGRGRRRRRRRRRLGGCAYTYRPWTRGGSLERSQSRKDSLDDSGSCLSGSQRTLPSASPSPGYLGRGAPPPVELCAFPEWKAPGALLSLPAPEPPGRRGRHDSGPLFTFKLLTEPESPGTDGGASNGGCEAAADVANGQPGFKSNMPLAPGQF
Briefly: radioligand ([125I]-HEAT) receptor binding assay, COS cell membranes, α1b-AR. The following applies: Tables A-J; [125I]-HEAT 50 pM, COS membranes; read-out: α1b IC50. The text has this:
(§1) The first assay tested the ability of compounds of Formula I to bind to membrane bound receptors α1a-AR, α1b-AR and α1d-AR.
(§2) The DNA sequences of the three cloned human α1-AR subtypes have been published. […] We used published DNA sequence information to design-primers for use in RT-PCR amplification of each subtype to obtain cloned cDNAs. Human poly A+ RNA was obtained from commercially available sources and included hippocampus and prostate samples, sources which have been cited in the literature. For the primary screen a radio ligand binding assay was used which employed membrane preparations from cells expressing the individual cloned receptor cDNAs. Radiolabeled ligands with binding activity on all three subtypes (non-selective) are commercially available ([125I]-HEAT, [3H]-prazosin).
(§3) Each α1 receptor subtype was cloned from poly A+ RNA by the standard method of reverse transcription-polymerase chain reaction (RT-PCR). The following sources of polyA+ RNA were used for the cloning of the al receptor subtypes: α1a-AR, human hippocampus and prostate, α1b-AR, human hippocampus, α1d-AR, human hippocampus. The resulting cDNAs were cloned into the pcDNA3 mammalian expression vector (Invitrogen Corp., San Diego Calif.). Each DNA was sequenced for verification and to detect any possible mutations introduced during the amplification process. Any deviation in sequence from the published consensus for each receptor subtype was corrected by site-directed mutagenesis.
(§4) The three α1-AR subtypes (a, b, d) were transfected into COS cells using a standard DEAE-dextran procedure with a chloroquine shock. In this procedure, each tissue culture dish (100 mm) was inoculated with 3.5×10^6 cells and transfected with 10 μg of DNA. Approximately 72 hours post-transfection, the cells were harvested and COS membranes were prepared. Transfected COS cells from 25 plates (100 mm) were scraped and suspended in 15 mL of TE buffer (50 mM Tris-HCl, 5 mM EDTA, pH7.4). The suspension was disrupted with a homogenizer. It was then centrifuged at 1000×g for 10 minutes at 4° C. The supernatant was centrifuged at 34,500×g for 20 minutes at 4° C. The pellet was resuspended in 5 mL TNE buffer (50 mM Tris-HCl, 5 mM EDTA, 150 mM NaCl, pH7.4). The resulting membrane preparation was aliquoted and stored at −70° C. The protein concentration was determined following membrane solubilization with TritonX-100.
(§5) The ability of each compound to bind to each of the α1-AR subtypes was assessed in a receptor binding assay. [125I]-HEAT, a non-selective α1-AR ligand, was used as the radiolabeled ligand. Each well of a 96-well plate received: 140 μL TNE, 25 μL [125I]-HEAT diluted in TNE (50,000 cpm; final concentration 50 pM), 10 μL test compound diluted in DMSO (final concentration 1 pM-10 μM), […] COS cell membrane preparation expressing one of the three α1-AR subtypes (0.05-0.2 mg membrane protein). The plate was incubated for 1 hour at room temperature and the reaction mixtures were filtered through a Packard GF/C Unifilter filter plate. The filter plate was dried for 1 hour in a vacuum oven. Scintillation fluid ([…]) was added to each well, and the filter plate was counted in a Packard Topcount scintillation counter. Data was analyzed using GraphPad Prism software.
(§6) Tables A-J list the IC50 values expressed in nanomolar concentration for select compounds of the invention in all receptor subtypes.

The next experiment has as its target T2, α1d-AR (Homo sapiens, UniProt P25100).
T2 construct: expressed in transfected cells; host or cells: COS cells (pcDNA3 vector, DEAE-dextran transient transfection); membrane preparation
T2 sequence (P25100 1-572): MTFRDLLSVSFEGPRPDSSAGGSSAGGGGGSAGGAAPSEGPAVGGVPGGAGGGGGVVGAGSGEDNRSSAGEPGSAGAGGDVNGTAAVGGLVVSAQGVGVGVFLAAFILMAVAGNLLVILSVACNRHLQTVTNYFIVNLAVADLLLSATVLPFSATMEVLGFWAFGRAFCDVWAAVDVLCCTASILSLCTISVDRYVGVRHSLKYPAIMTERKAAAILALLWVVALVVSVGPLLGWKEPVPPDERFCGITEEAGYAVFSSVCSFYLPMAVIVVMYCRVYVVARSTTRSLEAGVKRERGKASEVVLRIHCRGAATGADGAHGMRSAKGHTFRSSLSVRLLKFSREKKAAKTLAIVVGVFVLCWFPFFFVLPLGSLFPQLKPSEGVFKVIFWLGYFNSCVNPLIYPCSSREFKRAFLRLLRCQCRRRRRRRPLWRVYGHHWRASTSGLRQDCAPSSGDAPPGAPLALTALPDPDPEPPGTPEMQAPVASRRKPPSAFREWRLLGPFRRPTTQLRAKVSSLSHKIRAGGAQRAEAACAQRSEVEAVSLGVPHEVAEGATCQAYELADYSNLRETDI
Kind of experiment: radioligand ([125I]-HEAT) receptor binding assay, COS cell membranes, α1d-AR. The note with it: Tables A-J, [125I]-HEAT 50 pM.
Description: as §1, §2, §3, §4, §5, §6

One may read the IC50 as the point on the concentration scale where inhibition reaches its midpoint. Turning to `CC(C)Oc1ccccc1N1CCN(Cc2ncc(CN3CCCCC3=O)s2)CC1` [Compound 16], the results for the half-maximal inhibitory concentration (IC50) at α1b-AR and on α1d-AR were 8.5 µM and 0.211 µM, respectively.
Turning to `CC(C)Oc1ccccc1N1CCN(Cc2cc(CN3CCCCC3=O)n[nH]2)CC1` [Compound 3], the 50% inhibitory concentration (IC50) at α1b-AR is 3.92 µM; at α1d-AR, 0.177 µM.
